# Literature values, collected in US20140023696A1, “TREATMENT FOR IDIOPATHIC PULMONARY FIBROSIS” (priority 2012, published 2014).
# Tested on: patients with IPF
# Settings: added to prednisone and azathioprine; 12 months of follow up
smiles,measurement,value
CC(=O)N[C@@H](CS)C(=O)O [N-acetylcysteine],effect on FVC and DLCO,slight benefit
